Values after ≈ are worked out from the molar mass of the structure shown.
Experiments:
Experiment in all cases: In vitro antibacterial evaluation: minimum inhibitory concentration (MIC), broth dilution method
Type in all cases: cell-based
Escherichia coli = conditions: 5×10^5 CFU/mL, 18 hours at 35° C.
In short: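 Using Muller-Hinton II […] and an inoculum of 5×10^5 CFU/mL, antibiotic dilutions from 64 down to 0.06 μg/mL were tested following NCCLS M7-A2. The MIC is the lowest concentration inhibiting growth, including in methicillin-, penicillin- or vancomycin-resistant clinical isolates.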

Enterococcus sp. = conditions: broth dilution, 5×10^5 CFU/mL, 18 hours at 35° C.
In short: (§1)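 Values are minimum inhibitory concentrations, meaning the smallest antibiotic concentration that stops growth of the organism. They come from broth dilution in Muller-Hinton II […] per NCCLS guidance (M7-A2), using 5×10^5 CFU/mL and concentrations from 64 to 0.06 μg/mL.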

Streptococcus sp. = conditions: broth dilution, 5×10^5 CFU/mL, 18 hours at 35° C.
In short: as §1

Staphylococcus sp. = conditions: for MIC Staphylococcus aureus (ATCC 29213): strain ATCC 29213; for MIC Staphylococcus aureus (GC 1131): strain GC 1131; for MIC Staphylococcus aureus (GC 3051): strain GC 3051; for MIC Staphylococcus aureus (GC 3053): strain GC 3053; for MIC Staphylococcus aureus (GC 4541): strain GC 4541; for MIC Staphylococcus aureus (GC 4542): strain GC 4542; for MIC Staphylococcus aureus (GC 4544): strain GC 4544; for MIC Staphylococcus aureus (GC 4545): strain GC 4545
In short: as §1

[1] = broth dilution, 5×10^5 CFU/mL, 18 hours at 35° C.
[2] = broth dilution, 18 hours at 35° C.

CC(C)=CCCC(C)CC1OCC2OC(OC3C(CO)OC(Oc4ccc(CC5NC(=O)C(C(C)c6ccccc6)NC(=O)CNC(=O)C(CO)NC(=O)C(C(O)C6CNC(=N)N6C6OC(CO)C(O)C(O)C6O)NC(=O)C(C(O)C6CNC(=N)N6)NC5=O)cc4)C(O)C3O)C(O)C(O)C2O1 (stereo not drawn) [Example 126, Cyclo[glycyl-β-methylphenylalanyl-O-[4-O-[4,6-O-[3,7-dimethyloct-6-en-1-ylidene)hexopyranosyl]hexopyranosyl]tyrosyl-3-(2-iminoimidazolidin-4-yl)seryl-3-(3-hexopyranosyl-2-iminoimidazolidin-4-yl)serylseryl]]
MIC Escherichia coli (ATCC 25922) (Escherichia coli): 64 µg/mL (≈ 44.7 µM) | MIC Escherichia coli (GC 4559) (Escherichia coli): 64 µg/mL (≈ 44.7 µM) | MIC Escherichia coli (GC 4560) (Escherichia coli): 8 µg/mL (≈ 5.59 µM) | MIC Enterococccus avium (GC 4558) (Enterococcus sp.): 8 µg/mL (≈ 5.59 µM) | MIC Enterococccus faecalis (ATCC 29212) (Enterococcus sp.): 8 µg/mL (≈ 5.59 µM) | MIC Enterococccus faecalis (GC 2691) (Enterococcus sp.): 8 µg/mL (≈ 5.59 µM) | MIC Enterococccus faecalis (GC 3059) (Enterococcus sp.): 8 µg/mL (≈ 5.59 µM) | MIC Enterococccus faecalis (GC 4552) (Enterococcus sp.): 8 µg/mL (≈ 5.59 µM) | MIC Enterococccus faecalis (GC 4553) (Enterococcus sp.): 8 µg/mL (≈ 5.59 µM) | MIC Enterococccus faecalis (GC 4554) (Enterococcus sp.): 8 µg/mL (≈ 5.59 µM) | MIC Enterococccus faecalis (GC 6189) (Enterococcus sp.): 8 µg/mL (≈ 5.59 µM) | MIC Enterococccus faecium (GC 2243) (Enterococcus sp.): 8 µg/mL (≈ 5.59 µM) | MIC Enterococccus faecium (GC 4556) (Enterococcus sp.): 8 µg/mL (≈ 5.59 µM) | MIC Enterococccus faecium (GC 4557) (Enterococcus sp.): 8 µg/mL (≈ 5.59 µM) | MIC Enterococcus faecalis (GC 2242) (Enterococcus sp.): 8 µg/mL (≈ 5.59 µM) | MIC Streptococcus agalactiae (GC 4564) (Streptococcus sp.): 1 µg/mL (≈ 0.699 µM) | MIC Streptococcus pneumoniae (GC 1894) (Streptococcus sp.): <0.06 µg/mL | MIC Streptococcus pneumoniae (GC 4565) (Streptococcus sp.): <0.06 µg/mL | MIC Streptococcus pneumonine (ATCC 6301) (Streptococcus sp.): <0.06 µg/mL | MIC Streptococcus pyogenes (GC 4563) (Streptococcus sp.): 0.12 µg/mL (≈ 0.0838 µM) | MIC Coagulase Negative Staphylococcus (GC 4547) (Staphylococcus sp.; [1]): 8 µg/mL (≈ 5.59 µM) | MIC Coagulase Negative Staphylococcus (GC 4548) (Staphylococcus sp.; [1]): 8 µg/mL (≈ 5.59 µM) | MIC Coagulase Negative Staphylococcus (GC 4549) (Staphylococcus sp.; [1]): 8 µg/mL (≈ 5.59 µM) | MIC Coagulase Negative Staphylococcus (GC 4551) (Staphylococcus sp.; [1]): 8 µg/mL (≈ 5.59 µM) | MIC Coagulase Negative Staphylococcus (GC 6257) (Staphylococcus sp.; [1]): 8 µg/mL (≈ 5.59 µM) | MIC Staphylococcus aureus-SMITH (GC 4543) (Staphylococcus sp.; [1]): 8 µg/mL (≈ 5.59 µM) | MIC Staphylococcus haemolyticus (GC 4546) (Staphylococcus sp.; [1]): 8 µg/mL (≈ 5.59 µM) | MIC Staphylococcus aureus (ATCC 29213) (Staphylococcus sp.): 8 µg/mL (≈ 5.59 µM) | MIC Staphylococcus aureus (ATCC 29213) (Staphylococcus sp.; [2]): 8 µg/mL (≈ 5.59 µM) | MIC Staphylococcus aureus (GC 1131) (Staphylococcus sp.): 8 µg/mL (≈ 5.59 µM) | MIC Staphylococcus aureus (GC 1131) (Staphylococcus sp.; [2]): 8 µg/mL (≈ 5.59 µM) | MIC Staphylococcus aureus (GC 3051) (Staphylococcus sp.): 8 µg/mL (≈ 5.59 µM) | MIC Staphylococcus aureus (GC 3051) (Staphylococcus sp.; [2]): 8 µg/mL (≈ 5.59 µM) | MIC Staphylococcus aureus (GC 3053) (Staphylococcus sp.): 8 µg/mL (≈ 5.59 µM) | MIC Staphylococcus aureus (GC 3053) (Staphylococcus sp.; [2]): 8 µg/mL (≈ 5.59 µM) | MIC Staphylococcus aureus (GC 4541) (Staphylococcus sp.): 8 µg/mL (≈ 5.59 µM) | MIC Staphylococcus aureus (GC 4541) (Staphylococcus sp.; [2]): 8 µg/mL (≈ 5.59 µM) | MIC Staphylococcus aureus (GC 4542) (Staphylococcus sp.): 8 µg/mL (≈ 5.59 µM) | MIC Staphylococcus aureus (GC 4542) (Staphylococcus sp.; [2]): 8 µg/mL (≈ 5.59 µM) | MIC Staphylococcus aureus-SMITH (GC 4543) (Staphylococcus sp.; strain GC 4543, broth dilution, 18 hours at 35° C.): 8 µg/mL (≈ 5.59 µM) | MIC Staphylococcus aureus (GC 4544) (Staphylococcus sp.): 8 µg/mL (≈ 5.59 µM) | MIC Staphylococcus aureus (GC 4544) (Staphylococcus sp.; [2]): 8 µg/mL (≈ 5.59 µM) | MIC Staphylococcus aureus (GC 4545) (Staphylococcus sp.): 8 µg/mL (≈ 5.59 µM) | MIC Staphylococcus aureus (GC 4545) (Staphylococcus sp.; [2]): 8 µg/mL (≈ 5.59 µM) | MIC Staphylococcus haemolyticus (GC 4546) (Staphylococcus sp.; strain GC 4546, broth dilution, 18 hours at 35° C.): 8 µg/mL (≈ 5.59 µM) | MIC Coagulase Negative Staphylococcus (GC 4547) (Staphylococcus sp.; strain GC 4547, broth dilution, 18 hours at 35° C.): 8 µg/mL (≈ 5.59 µM) | MIC Coagulase Negative Staphylococcus (GC 4548) (Staphylococcus sp.; strain GC 4548, broth dilution, 18 hours at 35° C.): 8 µg/mL (≈ 5.59 µM) | MIC Coagulase Negative Staphylococcus (GC 4549) (Staphylococcus sp.; strain GC 4549, broth dilution, 18 hours at 35° C.): 8 µg/mL (≈ 5.59 µM) | MIC Coagulase Negative Staphylococcus (GC 4551) (Staphylococcus sp.; strain GC 4551, broth dilution, 18 hours at 35° C.): 8 µg/mL (≈ 5.59 µM) | MIC Coagulase Negative Staphylococcus (GC 6257) (Staphylococcus sp.; strain GC 6257, broth dilution, 18 hours at 35° C.): 8 µg/mL (≈ 5.59 µM)
